According to ChEMBL document CHEMBL5584266, “Novel selective proline-based peptidomimetics for human cathepsin K inhibition” (Bioorg Med Chem Lett, 2024):

What was measured:
Procathepsin L = Procathepsin L (Homo sapiens, UniProt P07711); assay: Binding affinity to human Cathepsin L assessed as inhibition constant
Cathepsin K = target: T1, Cathepsin K (Homo sapiens, UniProt P43235); assay: Binding affinity to human Cathepsin K assessed as inhibition constant
T1 sequence (P43235 whole entry): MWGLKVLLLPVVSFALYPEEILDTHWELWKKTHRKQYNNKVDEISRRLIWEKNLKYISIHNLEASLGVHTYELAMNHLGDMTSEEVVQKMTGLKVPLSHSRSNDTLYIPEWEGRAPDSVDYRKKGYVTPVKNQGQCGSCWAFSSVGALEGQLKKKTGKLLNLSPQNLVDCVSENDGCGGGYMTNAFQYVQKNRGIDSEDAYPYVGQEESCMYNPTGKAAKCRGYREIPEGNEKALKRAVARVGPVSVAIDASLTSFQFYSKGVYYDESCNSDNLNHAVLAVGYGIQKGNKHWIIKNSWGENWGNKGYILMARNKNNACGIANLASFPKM

Cathepsin B = Cathepsin B (Homo sapiens, UniProt P07858); assay: Binding affinity to human Cathepsin B assessed as inhibition constant
Cathepsin S = Cathepsin S (Homo sapiens, UniProt P25774); assay: Binding affinity to human Cathepsin S assessed as inhibition constant
Cathepsin S, sequence (P25774 whole entry): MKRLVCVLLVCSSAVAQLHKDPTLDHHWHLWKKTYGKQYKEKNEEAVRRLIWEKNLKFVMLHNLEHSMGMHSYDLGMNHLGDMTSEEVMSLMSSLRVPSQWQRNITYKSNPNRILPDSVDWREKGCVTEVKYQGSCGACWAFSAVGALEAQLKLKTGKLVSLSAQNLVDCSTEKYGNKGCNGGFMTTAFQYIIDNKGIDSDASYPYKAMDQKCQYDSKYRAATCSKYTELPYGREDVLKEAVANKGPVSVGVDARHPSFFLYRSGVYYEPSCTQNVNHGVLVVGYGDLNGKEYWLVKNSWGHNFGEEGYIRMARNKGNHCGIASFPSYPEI

Procathepsin L, sequence (P07711 whole entry): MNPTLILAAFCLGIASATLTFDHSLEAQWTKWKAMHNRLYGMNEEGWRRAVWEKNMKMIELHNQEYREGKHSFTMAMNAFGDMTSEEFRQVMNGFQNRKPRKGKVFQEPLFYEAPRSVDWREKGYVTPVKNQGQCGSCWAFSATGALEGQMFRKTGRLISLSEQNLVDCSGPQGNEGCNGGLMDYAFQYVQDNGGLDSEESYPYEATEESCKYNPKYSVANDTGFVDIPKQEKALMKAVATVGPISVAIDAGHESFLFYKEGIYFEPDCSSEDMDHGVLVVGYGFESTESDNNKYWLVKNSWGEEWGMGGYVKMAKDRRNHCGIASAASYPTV

Structure (SMILES) | Ki (Procathepsin L; read-out: Ki) [µM] | Ki (Procathepsin L; read-out: pKi (converted)) [µM] | Ki (Cathepsin K; read-out: Ki) [µM] | Ki (Cathepsin B) [µM] | Ki (Cathepsin S) [µM] | Ki (Cathepsin K; read-out: pKi (converted)) [µM]
C[C@H]1C[C@@H](C(=O)NC2(C#N)CC2)N(C(=O)OC(C)(C)C)C1 | – | > 100 | – | > 100 | – | –
C[C@H]1C[C@@H](C(=O)NC2(C#N)CC2)N(C(=O)c2cc(C(C)(C)C)nn2C)C1 | – | > 100 | – | > 100 | – | –
C[C@H]1C[C@@H](C(=O)NC2(C#N)CC2)N(C(=O)Cc2ccccc2)C1 | – | > 100 | – | > 100 | – | –
CC(C)(F)C[C@H](N[C@@H](c1ccc(-c2ccc(S(C)(=O)=O)cc2)cc1)C(F)(F)F)C(=O)NC1(C#N)CC1 [ODANACATIB] | – | – | – | – | – | 0.0002

Next, values leading:

Ki (Procathepsin L; read-out: Ki) [µM] | Ki (Procathepsin L; read-out: pKi (converted)) [µM] | Ki (Cathepsin K; read-out: Ki) [µM] | Ki (Cathepsin B) [µM] | Ki (Cathepsin S) [µM] | Ki (Cathepsin K; read-out: pKi (converted)) [µM] | Structure (SMILES)
~0.008 | 0.00158 | ~0.008 | > 100 | 0.0794 | – | CC(C)C[C@H](NC(=O)c1cc(C(C)(C)C)nn1C)C(=O)NC1(C#N)CC1
– | > 100 | – | > 100 | – | – | C[C@H]1C[C@@H](C(=O)NC2(C#N)CC2)N(S(=O)(=O)c2cc(C(F)(F)F)nn2C)C1
– | > 100 | – | > 100 | – | – | C[C@H]1C[C@@H](C(=O)NC2(C#N)CC2)N(C(=O)c2cc(C(F)(F)F)nn2C)C1
– | > 100 | – | > 100 | – | – | C[C@H]1C[C@@H](C(=O)NC2(C#N)CC2)N(C(=O)c2ccccc2)C1
